System: Fusarium
Assay: Lysozyme against Fusarium, plug in PD broth
Type: cell-based
Procedure: PD broth was prepared and autoclaved in dilution bottles (100 ml) and allowed to cool. Required amounts of lysozyme were added into the bottles and dissolved. […] A square of Fusarium (5-10 mm square “plug”) was cut and placed in/near the center of each dish. The plates were incubated at room temperature for 2 weeks. The trial was carried out in triplicate and was repeated three times.
The fungal growth was quantified by measuring the diameter of Fusarium growth and the coverage of the plates by the fungus. The measurements (given in mm) also include the size of the inoculum plug inserted into the plate of media. The color change and the change in the physical appearance (fuzzy, not fuzzy) were also monitored. The Fusarium growth is pink to dark pink. All the numbers shown are the averages of three replicates for each treatment. The diameter of the plate was approximately 85 mm.

lysozyme: type c egg white lysozyme, enzyme of approximately 129 amino acids; commercially available from Canadian Inovatech, Inc.
Fusarium growth (250 ppm, broth turned yellow after 10 days): quite limited | diameter of Fusarium growth (Batch 1, 25 ppm, day 0 (inoculum plug)): 9.3 mm | growth, color and physical appearance (Batch 1, 25 ppm, day 4): Confluent, pink | growth, color and physical appearance (Batch 1, 25 ppm, day 7): Confluent, dark | growth, color and physical appearance (Batch 1, 25 ppm, day 11): Confluent, dark | diameter of Fusarium growth (Batch 1, 50 ppm, day 0 (inoculum plug)): 9.7 mm | growth, color and physical appearance (Batch 1, 50 ppm, day 4): Confluent, pink | growth, color and physical appearance (Batch 1, 50 ppm, day 7): Confluent, dark | growth, color and physical appearance (Batch 1, 50 ppm, day 11): Confluent, dark | diameter of Fusarium growth (Batch 1, 75 ppm, day 0 (inoculum plug)): 8.3 mm | coverage of the plates by the fungus (Batch 1, 75 ppm, day 4): 36.7% covered | diameter of Fusarium growth (Batch 1, 75 ppm, day 4): 23.7 mm | coverage of the plates by the fungus (Batch 1, 75 ppm, day 7): 60% covered | diameter of Fusarium growth (Batch 1, 75 ppm, day 7): 27.0 mm | growth, color and physical appearance (Batch 1, 75 ppm, day 11): Confluent, dark | diameter of Fusarium growth (Batch 1, 100 ppm, day 0 (inoculum plug)): 8.0 mm | coverage of the plates by the fungus (Batch 1, 100 ppm, day 4): 26.7% covered | diameter of Fusarium growth (Batch 1, 100 ppm, day 4): 23.7 mm | coverage of the plates by the fungus (Batch 1, 100 ppm, day 7): 46.7% covered | diameter of Fusarium growth (Batch 1, 100 ppm, day 7): 28.3 mm | coverage of the plates by the fungus (Batch 1, 100 ppm, day 11): 80% covered | growth, color and physical appearance (Batch 1, 100 ppm, day 11): Dark pink | diameter of Fusarium growth (Batch 1, 250 ppm, day 0 (inoculum plug)): 8.7 mm | diameter of Fusarium growth (Batch 1, 250 ppm, day 4): 16.0 mm | diameter of Fusarium growth (Batch 1, 250 ppm, day 7): 22.0 mm | coverage of the plates by the fungus (Batch 1, 250 ppm, day 11): 29.7% covered | growth, color and physical appearance (Batch 1, 250 ppm, day 11): Yellow broth | diameter of Fusarium growth (Batch 2, 25 ppm, day 0 (inoculum plug)): 7.8 mm | coverage of the plates by the fungus (Batch 2, 25 ppm, day 4): 76.7% | growth, color and physical appearance (Batch 2, 25 ppm, day 4): dark peach | coverage of the plates by the fungus (Batch 2, 25 ppm, day 6): 88.3% | growth, color and physical appearance (Batch 2, 25 ppm, day 6): pink | coverage of the plates by the fungus (Batch 2, 25 ppm, day 8): 91.7% | growth, color and physical appearance (Batch 2, 25 ppm, day 8): dark pink | coverage of the plates by the fungus (Batch 2, 25 ppm, day 11): 91.7% | growth, color and physical appearance (Batch 2, 25 ppm, day 11): dark pink | coverage of the plates by the fungus (Batch 2, 25 ppm, day 14): 91.7% | growth, color and physical appearance (Batch 2, 25 ppm, day 14): dark pink, | diameter of Fusarium growth (Batch 2, 50 ppm, day 0 (inoculum plug)): 7.5 mm | coverage of the plates by the fungus (Batch 2, 50 ppm, day 4): 43.3% | growth, color and physical appearance (Batch 2, 50 ppm, day 4): peach | coverage of the plates by the fungus (Batch 2, 50 ppm, day 6): 60% | growth, color and physical appearance (Batch 2, 50 ppm, day 6): pink | coverage of the plates by the fungus (Batch 2, 50 ppm, day 8): 61.7% | growth, color and physical appearance (Batch 2, 50 ppm, day 8): dark pink | coverage of the plates by the fungus (Batch 2, 50 ppm, day 11): 68.3% | growth, color and physical appearance (Batch 2, 50 ppm, day 11): dark pink | coverage of the plates by the fungus (Batch 2, 50 ppm, day 14): 55.0% | growth, color and physical appearance (Batch 2, 50 ppm, day 14): dark pink, | diameter of Fusarium growth (Batch 2, 75 ppm, day 0 (inoculum plug)): 8.0 mm | coverage of the plates by the fungus (Batch 2, 75 ppm, day 4): 13.3% | diameter of Fusarium growth (Batch 2, 75 ppm, day 4): 21.3 mm | growth, color and physical appearance (Batch 2, 75 ppm, day 4): peach | coverage of the plates by the fungus (Batch 2, 75 ppm, day 6): 40% | growth, color and physical appearance (Batch 2, 75 ppm, day 6): pink | coverage of the plates by the fungus (Batch 2, 75 ppm, day 8): 46.7% | growth, color and physical appearance (Batch 2, 75 ppm, day 8): pink | coverage of the plates by the fungus (Batch 2, 75 ppm, day 11): 61.7% | growth, color and physical appearance (Batch 2, 75 ppm, day 11): dark pink | coverage of the plates by the fungus (Batch 2, 75 ppm, day 14): 68.3% | growth, color and physical appearance (Batch 2, 75 ppm, day 14): dark pink, | diameter of Fusarium growth (Batch 2, 100 ppm, day 0 (inoculum plug)): 7.8 mm | diameter of Fusarium growth (Batch 2, 100 ppm, day 4): 22.3 mm | growth, color and physical appearance (Batch 2, 100 ppm, day 4): peach | diameter of Fusarium growth (Batch 2, 100 ppm, day 6): 20.0 mm | growth, color and physical appearance (Batch 2, 100 ppm, day 6): light peach | coverage of the plates by the fungus (Batch 2, 100 ppm, day 8): 30.3% | growth, color and physical appearance (Batch 2, 100 ppm, day 8): pink | diameter of Fusarium growth (Batch 2, 100 ppm, day 11): 37 mm | growth, color and physical appearance (Batch 2, 100 ppm, day 11): pink/yellow | diameter of Fusarium growth (Batch 2, 100 ppm, day 14): 42.7 mm | growth, color and physical appearance (Batch 2, 100 ppm, day 14): pink, fuzzy | diameter of Fusarium growth (Batch 2, 250 ppm, day 0 (inoculum plug)): 7.3 mm | diameter of Fusarium growth (Batch 2, 250 ppm, day 4): 17.0 mm | growth, color and physical appearance (Batch 2, 250 ppm, day 4): light peach | diameter of Fusarium growth (Batch 2, 250 ppm, day 6): 19.7 mm | growth, color and physical appearance (Batch 2, 250 ppm, day 6): very light | diameter of Fusarium growth (Batch 2, 250 ppm, day 8): 22 mm | growth, color and physical appearance (Batch 2, 250 ppm, day 8): dark peach | diameter of Fusarium growth (Batch 2, 250 ppm, day 11): 25.7 mm | growth, color and physical appearance (Batch 2, 250 ppm, day 11): yellow broth | diameter of Fusarium growth (Batch 2, 250 ppm, day 14): 35.0 mm | growth, color and physical appearance (Batch 2, 250 ppm, day 14): pink, fuzzy | diameter of Fusarium growth (Batch 3, 25 ppm, day 0 (inoculum plug)): 8.2 mm | coverage of the plates by the fungus (Batch 3, 25 ppm, day 4): 25% covered | diameter of Fusarium growth (Batch 3, 25 ppm, day 4): 26.3 mm | growth, color and physical appearance (Batch 3, 25 ppm, day 4): peach | coverage of the plates by the fungus (Batch 3, 25 ppm, day 7): 33.3% covered | diameter of Fusarium growth (Batch 3, 25 ppm, day 7): 24.7 mm | growth, color and physical appearance (Batch 3, 25 ppm, day 7): pink, fuzzy | coverage of the plates by the fungus (Batch 3, 25 ppm, day 11): 38.3% | diameter of Fusarium growth (Batch 3, 25 ppm, day 11): 31.3 mm | growth, color and physical appearance (Batch 3, 25 ppm, day 11): pink, fuzzy | coverage of the plates by the fungus (Batch 3, 25 ppm, day 14): 45.0% covered, | diameter of Fusarium growth (Batch 3, 25 ppm, day 14): 32.0 mm | growth, color and physical appearance (Batch 3, 25 ppm, day 14): pink, fuzzy | diameter of Fusarium growth (Batch 3, 50 ppm, day 0 (inoculum plug)): 7.5 mm | coverage of the plates by the fungus (Batch 3, 50 ppm, day 4): 28.3% covered | diameter of Fusarium growth (Batch 3, 50 ppm, day 4): 22.7 mm | growth, color and physical appearance (Batch 3, 50 ppm, day 4): peach | coverage of the plates by the fungus (Batch 3, 50 ppm, day 7): 41.7% covered | diameter of Fusarium growth (Batch 3, 50 ppm, day 7): 25.7 mm | growth, color and physical appearance (Batch 3, 50 ppm, day 7): pink, fuzzy | coverage of the plates by the fungus (Batch 3, 50 ppm, day 11): 41.7% | diameter of Fusarium growth (Batch 3, 50 ppm, day 11): 28.0 mm | growth, color and physical appearance (Batch 3, 50 ppm, day 11): pink, fuzzy | coverage of the plates by the fungus (Batch 3, 50 ppm, day 14): 48.3% covered, | diameter of Fusarium growth (Batch 3, 50 ppm, day 14): 29.3 mm | growth, color and physical appearance (Batch 3, 50 ppm, day 14): pink, fuzzy | diameter of Fusarium growth (Batch 3, 75 ppm, day 0 (inoculum plug)): 8.2 mm | diameter of Fusarium growth (Batch 3, 75 ppm, day 4): 25.2 mm | growth, color and physical appearance (Batch 3, 75 ppm, day 4): peach | diameter of Fusarium growth (Batch 3, 75 ppm, day 7): 32.7 mm | growth, color and physical appearance (Batch 3, 75 ppm, day 7): pink, fuzzy | diameter of Fusarium growth (Batch 3, 75 ppm, day 11): 41.0 mm | growth, color and physical appearance (Batch 3, 75 ppm, day 11): pink, fuzzy | coverage of the plates by the fungus (Batch 3, 75 ppm, day 14): 38.1% covered, | diameter of Fusarium growth (Batch 3, 75 ppm, day 14): 43.7 mm | growth, color and physical appearance (Batch 3, 75 ppm, day 14): pink, fuzzy | diameter of Fusarium growth (Batch 3, 100 ppm, day 0 (inoculum plug)): 8.7 mm | diameter of Fusarium growth (Batch 3, 100 ppm, day 4): 21.7 mm | growth, color and physical appearance (Batch 3, 100 ppm, day 4): peach | diameter of Fusarium growth (Batch 3, 100 ppm, day 7): 25.0 mm | growth, color and physical appearance (Batch 3, 100 ppm, day 7): pink, fuzzy | diameter of Fusarium growth (Batch 3, 100 ppm, day 11): 26.0 mm | growth, color and physical appearance (Batch 3, 100 ppm, day 11): pink, fuzzy | coverage of the plates by the fungus (Batch 3, 100 ppm, day 14): 34.9% covered, | diameter of Fusarium growth (Batch 3, 100 ppm, day 14): 26.7 mm | growth, color and physical appearance (Batch 3, 100 ppm, day 14): pink, fuzzy | diameter of Fusarium growth (Batch 3, 250 ppm, day 0 (inoculum plug)): 7.3 mm | diameter of Fusarium growth (Batch 3, 250 ppm, day 4): 12.2 mm | growth, color and physical appearance (Batch 3, 250 ppm, day 4): yellow | diameter of Fusarium growth (Batch 3, 250 ppm, day 7): 20 mm | growth, color and physical appearance (Batch 3, 250 ppm, day 7): peach, fuzzy | diameter of Fusarium growth (Batch 3, 250 ppm, day 11): 29.7 mm | diameter of Fusarium growth (Batch 3, 250 ppm, day 14): 38.7 mm | growth, color and physical appearance (Batch 3, 250 ppm, day 14): peach with yellow | inhibition of Fusarium (concentrations lower than 250 ppm, not as effective): some inhibition
